# Columns and labels:
# [1] = (§1) At a dose 50 mg/kg (114 umol/kg) was administered intraperitoneally to mice and was evaluated for MRT; type: ADME, organism-based; set-up: dose 50 mg/kg, route intraperitoneal; details: mouse, in vivo, ip
# A2780 [2] = experiment: […] antitumor activity against A2780 human ovarian carcinoma at 7.5 mg/kg i.p. /qd x7; type: functional; details: route intraperitoneal
# Mus musculus [3] = experiment: At a dose 50 mg/kg (114 umol/kg) was administered intraperitoneally to mice and was evaluated for area under curve (AUCtot); type: ADME, organism-based; set-up: time AUCmax, dose 50 mg/kg, route intraperitoneal; details: in vivo, ip
# [4] = At a dose 50 mg/kg (114 umol/kg) was administered intraperitoneally to mice and was evaluated for T max; type: ADME, organism-based; set-up: dose 50 mg/kg, route intraperitoneal; details: mouse, in vivo, ip
# [5] = At a dose 50 mg/kg (114 umol/kg) was administered intraperitoneally to mice and was evaluated for half life (T1/2); type: ADME, organism-based; set-up: dose 50 mg/kg, route intraperitoneal; details: mouse, in vivo, ip
# [6] = At a dose 50 mg/kg (114 umol/kg) was administered intraperitoneally to mice and was evaluated for Cmax; type: ADME, organism-based; set-up: dose 50 mg/kg, route intraperitoneal; details: mouse, in vivo, ip
# [7] = molecular target: Cyclin-dependent kinase 2 (Homo sapiens) (UniProt P24941); experiment: Percentage A2780 cells in G1 after 24 hr r at 5 nM (IC50); type: functional, cell-based
# [8] = molecular target: Cyclin-dependent kinase 2 (Homo sapiens) (UniProt P24941); experiment: Percentage A2780 cells in G2/M after 24 hr r at 5 nM (IC50); type: functional, cell-based
# [9] = molecular target: Cyclin-dependent kinase 2 (Homo sapiens) (UniProt P24941); experiment: Percentage A2780 cells in S-phase after 24 hr r at 5 nM (IC50); type: functional, cell-based
# [10] = molecular target: Cyclin-dependent kinase 2 (Homo sapiens) (UniProt P24941); experiment: Percentage A2780 cells in sub-G1 after 24 hr r at 5 nM (IC50); type: functional, cell-based
# [11] = molecular target: Cyclin-dependent kinase 2 (Homo sapiens) (UniProt P24941); experiment: Percentage A2780 cells in G1 after 24 hr r at 29 nM (IC90); type: functional, cell-based
# [12] = molecular target: Cyclin-dependent kinase 2 (Homo sapiens) (UniProt P24941); experiment: Percentage A2780 cells in G2/M after 24 hr r at 29 nM (IC90); type: functional, cell-based
# [13] = molecular target: Cyclin-dependent kinase 2 (Homo sapiens) (UniProt P24941); experiment: Percentage A2780 cells in S-phase after 24 hr r at 29 nM (IC90); type: functional, cell-based
# [14] = molecular target: Cyclin-dependent kinase 2 (Homo sapiens) (UniProt P24941); experiment: Apoptotic A2780 cells after 24 hr r at 29 nM (IC90); type: functional, cell-based
# [15] = molecular target: Cyclin-dependent kinase 2 (Homo sapiens) (UniProt P24941); experiment: Apoptotic A2780 cells after 24 hr r at 5 nM (IC50); type: functional, cell-based
# [16] = molecular target: Cyclin-dependent kinase 1/cyclin B (Homo sapiens, UniProt P06493); experiment: Inhibitory activity against baculovirus expressed Cyclin dependent kinase 1-cyclinB; type: protein-complex assay
# [17] = molecular target: Cyclin-dependent kinase 2/cyclin E (Homo sapiens, UniProt P24941); experiment: Inhibitory activity against baculovirus expressed Cyclin dependent kinase 2-cyclinE; type: protein-complex assay
# [18] = molecular target: Cyclin-dependent kinase 4/cyclin D1 (Homo sapiens, UniProt P11802); experiment: Inhibitory activity against baculovirus expressed Cyclin dependent kinase 4-cyclinD1; type: protein-complex assay
# HS27 = experiment: Inhibition of Hs 27 human fibroblast cell proliferation; type: functional, cell-based
# Homo sapiens [19] = organism: Homo sapiens; experiment: Percent of serum binding in human; type: functional
# MLF = experiment: Inhibition of MLF mouse lung fibroblast cell proliferation; type: functional, cell-based
# P388 = experiment: […] antitumor activity against P388 murine leukemia at 7.5 mg/kg i.p. /qd x7 and %T/C; type: functional, Mus musculus; details: route intraperitoneal
# M109 = experiment: Inhibition of M109 mouse lung carcinoma cell proliferation; type: functional, cell-based
# A2780 [20] = experiment: cells; details: Homo sapiens
# Description: Cytotoxic activity against A2780 human ovarian carcinoma cell line
# [21] = molecular target: Cyclin-dependent kinase 2 (Homo sapiens) (UniProt P24941); experiment: Percentage A2780 cells in sub-G1 after 24 hr r at 29 nM (IC90)
# [22] = Tmax value at a dose of 10 mg/kg intravenous administration in mice.; type: ADME, organism-based; set-up: dose 10 mg/kg, route intravenous; details: mouse, in vivo
# [23] = Tmax value at a dose of 10 mg/kg peroral administration in mice.; type: ADME, organism-based; set-up: dose 10 mg/kg, route oral; details: mouse, in vivo, po
# Mus musculus [24] = experiment: as §1; type: functional, organism-based; set-up: dose 50 mg/kg
# [25] = MRT value at a dose of 10 mg/kg intravenous administration in mice.; type: ADME, organism-based; set-up: dose 10 mg/kg, route intravenous; details: mouse, in vivo
# [26] = MRT value at a dose of 10 mg/kg peroral administration in mice.; type: ADME, organism-based; set-up: dose 10 mg/kg, route oral; details: mouse, in vivo, po
# Mus musculus [27] = experiment: AUC total value at a dose of 10 mg/kg intravenous administration in mice.; type: ADME, organism-based, Plasma; set-up: dose 10 mg/kg, route intravenous; details: in vivo
# Mus musculus [28] = experiment: AUC total value at a dose of 10 mg/kg peroral administration in mice.; type: ADME, organism-based, Plasma; set-up: dose 10 mg/kg, route oral; details: in vivo, po
# [29] = Vss value at a dose of 10 mg/kg intravenous administration in mice.; type: ADME, organism-based; set-up: dose 10 mg/kg, route intravenous; details: mouse, in vivo, read-out: Vss
# [30] = Half life at a dose of 10 mg/kg intravenous administration in mice.; type: ADME, organism-based; set-up: dose 10 mg/kg, route intravenous; details: mouse, in vivo
# [31] = Half life at a dose of 10 mg/kg peroral administration in mice.; type: ADME, organism-based; set-up: dose 10 mg/kg, route oral; details: mouse, in vivo, po
# [32] = Cmax value at a dose of 10 mg/kg intravenous administration in mice.; type: ADME, organism-based; set-up: dose 10 mg/kg, route intravenous; details: mouse, in vivo
# [33] = Cmax value at a dose of 10 mg/kg peroral administration in mice.; type: ADME, organism-based; set-up: dose 10 mg/kg, route oral; details: mouse, in vivo, po
# [34] = Plasma clearance at a dose of 10 mg/kg intravenous administration in mice.; type: ADME, organism-based; set-up: dose 10 mg/kg, route intravenous; details: mouse
# [35] = Bioavailability at a dose of 10 mg/kg peroral administration in mice.; type: ADME, organism-based; details: mouse, in vivo, po, read-out: Bioavailabiility
# [36] = molecular target: Receptor tyrosine-protein kinase erbB-2 (Homo sapiens, UniProt P04626); experiment: Inhibition of HER2 kinase
# [37] = Inhibition of I kappa-B kinase
# [38] = Inhibition of Insulin-like growth factor receptor
# Mus musculus [39] = organism: Mus musculus; experiment: Metabolic rate in mouse; type: ADME
# Mus musculus [40] = organism: Mus musculus; experiment: Percent of serum binding in mouse; type: functional
# [41] = molecular target: Protein kinase C beta type (Homo sapiens, UniProt P05771); experiment: Inhibition of Protein kinase C beta
# [42] = molecular target: Protein kinase C delta type (Homo sapiens, UniProt Q05655); experiment: Inhibition of Protein kinase C delta
# [43] = molecular target: Protein kinase C alpha type (Homo sapiens, UniProt P17252); experiment: Inhibition of Protein kinase C alpha
# [44] = molecular target: Protein kinase C epsilon type (Homo sapiens, UniProt Q02156); experiment: Inhibition of Protein kinase C epsilon
# [45] = molecular target: T1, Tyrosine-protein kinase ITK/TSK (Homo sapiens, UniProt Q08881); experiment: Inhibition of tyrosine kinase EMT
# T1 sequence (Q08881 whole entry): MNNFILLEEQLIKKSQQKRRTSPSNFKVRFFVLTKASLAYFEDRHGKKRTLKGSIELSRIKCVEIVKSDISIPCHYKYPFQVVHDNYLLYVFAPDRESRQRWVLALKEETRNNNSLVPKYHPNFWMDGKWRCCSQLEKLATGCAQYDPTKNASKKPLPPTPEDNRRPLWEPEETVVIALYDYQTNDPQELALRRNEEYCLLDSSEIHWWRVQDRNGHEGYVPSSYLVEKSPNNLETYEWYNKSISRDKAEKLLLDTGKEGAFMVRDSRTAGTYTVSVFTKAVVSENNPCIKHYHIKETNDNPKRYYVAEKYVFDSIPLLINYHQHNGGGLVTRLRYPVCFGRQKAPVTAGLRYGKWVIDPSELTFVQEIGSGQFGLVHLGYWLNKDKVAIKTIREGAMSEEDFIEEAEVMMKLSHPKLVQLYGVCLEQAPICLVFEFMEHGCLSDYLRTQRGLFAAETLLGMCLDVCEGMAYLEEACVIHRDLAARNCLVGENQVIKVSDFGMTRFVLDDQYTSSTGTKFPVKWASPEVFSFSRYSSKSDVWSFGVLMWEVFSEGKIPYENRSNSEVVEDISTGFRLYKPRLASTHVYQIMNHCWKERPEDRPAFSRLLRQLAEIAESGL
# [46] = molecular target: Tyrosine-protein kinase ZAP-70 (Homo sapiens, UniProt P43403); experiment: Inhibition of Zeta-chain (TCR) associated protein kinase 70 kDa (ZAP70)
# Homo sapiens [47] = organism: Homo sapiens; experiment: Metabolic rate in human; type: ADME
# [48] = molecular target: Protein kinase C zeta (Homo sapiens) (UniProt Q05513); experiment: Inhibition of Protein kinase C zeta
# Protein kinase C zeta (Homo sapiens), sequence (Q05513 whole entry, looked up): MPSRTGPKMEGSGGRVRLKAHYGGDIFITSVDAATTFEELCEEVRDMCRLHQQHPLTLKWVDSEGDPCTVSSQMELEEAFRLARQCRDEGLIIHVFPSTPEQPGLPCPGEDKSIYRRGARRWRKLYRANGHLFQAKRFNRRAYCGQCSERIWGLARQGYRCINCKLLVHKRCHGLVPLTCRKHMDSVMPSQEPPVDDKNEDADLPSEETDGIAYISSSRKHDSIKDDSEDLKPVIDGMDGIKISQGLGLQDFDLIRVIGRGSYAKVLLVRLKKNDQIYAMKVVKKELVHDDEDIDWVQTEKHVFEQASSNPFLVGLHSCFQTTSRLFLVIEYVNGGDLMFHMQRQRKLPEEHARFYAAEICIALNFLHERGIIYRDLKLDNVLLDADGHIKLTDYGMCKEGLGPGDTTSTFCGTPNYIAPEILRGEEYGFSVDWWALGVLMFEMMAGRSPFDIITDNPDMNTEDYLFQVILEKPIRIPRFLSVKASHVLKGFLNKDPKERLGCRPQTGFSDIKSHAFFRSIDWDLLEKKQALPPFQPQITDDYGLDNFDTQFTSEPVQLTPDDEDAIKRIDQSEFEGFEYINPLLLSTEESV
# Cyclin-dependent kinase 4/cyclin D1, sequence (P11802 whole entry): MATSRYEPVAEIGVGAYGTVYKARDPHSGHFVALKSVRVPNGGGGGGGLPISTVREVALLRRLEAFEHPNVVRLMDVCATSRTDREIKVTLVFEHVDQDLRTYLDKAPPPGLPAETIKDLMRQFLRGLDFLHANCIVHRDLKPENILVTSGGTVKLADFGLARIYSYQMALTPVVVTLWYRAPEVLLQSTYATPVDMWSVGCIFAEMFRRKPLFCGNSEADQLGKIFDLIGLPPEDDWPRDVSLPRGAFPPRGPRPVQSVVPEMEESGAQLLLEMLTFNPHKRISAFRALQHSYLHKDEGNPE
# Cyclin-dependent kinase 4/cyclin D1, sequence (P24385 whole entry, further chain): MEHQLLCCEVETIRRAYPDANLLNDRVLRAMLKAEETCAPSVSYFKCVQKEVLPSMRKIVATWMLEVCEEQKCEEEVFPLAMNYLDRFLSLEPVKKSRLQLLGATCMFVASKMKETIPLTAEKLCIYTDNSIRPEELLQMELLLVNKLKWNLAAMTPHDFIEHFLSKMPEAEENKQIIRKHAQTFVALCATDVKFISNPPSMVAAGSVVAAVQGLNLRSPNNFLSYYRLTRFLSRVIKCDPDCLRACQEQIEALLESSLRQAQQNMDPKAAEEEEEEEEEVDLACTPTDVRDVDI
# Protein kinase C delta type, sequence (Q05655 whole entry): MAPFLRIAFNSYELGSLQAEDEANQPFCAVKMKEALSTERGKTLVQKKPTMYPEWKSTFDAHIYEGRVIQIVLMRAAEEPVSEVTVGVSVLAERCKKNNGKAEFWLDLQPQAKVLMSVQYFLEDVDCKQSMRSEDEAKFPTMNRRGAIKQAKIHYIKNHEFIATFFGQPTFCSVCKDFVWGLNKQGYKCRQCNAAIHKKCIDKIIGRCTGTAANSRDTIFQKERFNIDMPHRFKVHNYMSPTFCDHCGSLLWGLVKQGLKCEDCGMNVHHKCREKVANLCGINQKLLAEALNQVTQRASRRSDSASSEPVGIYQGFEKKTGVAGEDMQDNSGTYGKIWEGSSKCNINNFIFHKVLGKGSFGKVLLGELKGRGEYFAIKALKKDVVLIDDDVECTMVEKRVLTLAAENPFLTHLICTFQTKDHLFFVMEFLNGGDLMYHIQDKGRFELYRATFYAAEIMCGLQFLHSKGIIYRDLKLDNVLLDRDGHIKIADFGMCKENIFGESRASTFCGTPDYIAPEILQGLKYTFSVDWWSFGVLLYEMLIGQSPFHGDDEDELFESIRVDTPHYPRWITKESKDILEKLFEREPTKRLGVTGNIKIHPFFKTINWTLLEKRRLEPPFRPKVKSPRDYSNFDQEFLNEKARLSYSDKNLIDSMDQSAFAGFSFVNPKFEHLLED
# Receptor tyrosine-protein kinase erbB-2, sequence (P04626 whole entry): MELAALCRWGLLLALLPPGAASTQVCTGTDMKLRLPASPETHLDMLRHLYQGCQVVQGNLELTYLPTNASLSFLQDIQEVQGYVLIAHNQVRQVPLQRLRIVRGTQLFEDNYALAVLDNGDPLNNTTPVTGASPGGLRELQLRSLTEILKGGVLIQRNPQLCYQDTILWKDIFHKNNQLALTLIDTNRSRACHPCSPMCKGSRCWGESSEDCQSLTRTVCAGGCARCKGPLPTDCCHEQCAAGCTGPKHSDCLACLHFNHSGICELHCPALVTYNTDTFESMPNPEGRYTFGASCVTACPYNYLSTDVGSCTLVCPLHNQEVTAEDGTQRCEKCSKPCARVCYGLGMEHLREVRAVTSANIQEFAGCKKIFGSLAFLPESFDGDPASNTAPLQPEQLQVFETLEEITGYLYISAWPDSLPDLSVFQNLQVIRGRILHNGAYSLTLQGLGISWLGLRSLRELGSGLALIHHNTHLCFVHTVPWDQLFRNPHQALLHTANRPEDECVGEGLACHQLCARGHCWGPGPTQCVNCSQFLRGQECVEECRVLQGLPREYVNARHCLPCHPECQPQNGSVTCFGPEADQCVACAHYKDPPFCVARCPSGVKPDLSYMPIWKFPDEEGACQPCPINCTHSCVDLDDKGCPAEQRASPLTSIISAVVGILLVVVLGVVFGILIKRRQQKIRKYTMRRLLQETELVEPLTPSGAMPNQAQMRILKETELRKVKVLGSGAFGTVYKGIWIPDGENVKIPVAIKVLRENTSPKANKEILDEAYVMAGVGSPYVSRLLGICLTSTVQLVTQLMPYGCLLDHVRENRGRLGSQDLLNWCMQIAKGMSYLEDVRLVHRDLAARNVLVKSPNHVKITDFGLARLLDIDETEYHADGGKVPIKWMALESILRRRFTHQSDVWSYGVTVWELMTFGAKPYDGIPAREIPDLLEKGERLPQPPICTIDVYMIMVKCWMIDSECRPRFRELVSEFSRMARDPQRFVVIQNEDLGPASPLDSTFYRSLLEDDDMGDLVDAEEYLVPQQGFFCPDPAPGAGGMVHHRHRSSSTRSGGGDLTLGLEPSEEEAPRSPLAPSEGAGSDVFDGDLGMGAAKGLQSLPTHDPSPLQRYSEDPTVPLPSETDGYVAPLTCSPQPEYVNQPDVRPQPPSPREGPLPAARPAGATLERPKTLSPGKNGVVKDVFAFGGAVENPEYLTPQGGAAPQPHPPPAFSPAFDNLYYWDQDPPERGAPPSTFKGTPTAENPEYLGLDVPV
# Protein kinase C epsilon type, sequence (Q02156 whole entry): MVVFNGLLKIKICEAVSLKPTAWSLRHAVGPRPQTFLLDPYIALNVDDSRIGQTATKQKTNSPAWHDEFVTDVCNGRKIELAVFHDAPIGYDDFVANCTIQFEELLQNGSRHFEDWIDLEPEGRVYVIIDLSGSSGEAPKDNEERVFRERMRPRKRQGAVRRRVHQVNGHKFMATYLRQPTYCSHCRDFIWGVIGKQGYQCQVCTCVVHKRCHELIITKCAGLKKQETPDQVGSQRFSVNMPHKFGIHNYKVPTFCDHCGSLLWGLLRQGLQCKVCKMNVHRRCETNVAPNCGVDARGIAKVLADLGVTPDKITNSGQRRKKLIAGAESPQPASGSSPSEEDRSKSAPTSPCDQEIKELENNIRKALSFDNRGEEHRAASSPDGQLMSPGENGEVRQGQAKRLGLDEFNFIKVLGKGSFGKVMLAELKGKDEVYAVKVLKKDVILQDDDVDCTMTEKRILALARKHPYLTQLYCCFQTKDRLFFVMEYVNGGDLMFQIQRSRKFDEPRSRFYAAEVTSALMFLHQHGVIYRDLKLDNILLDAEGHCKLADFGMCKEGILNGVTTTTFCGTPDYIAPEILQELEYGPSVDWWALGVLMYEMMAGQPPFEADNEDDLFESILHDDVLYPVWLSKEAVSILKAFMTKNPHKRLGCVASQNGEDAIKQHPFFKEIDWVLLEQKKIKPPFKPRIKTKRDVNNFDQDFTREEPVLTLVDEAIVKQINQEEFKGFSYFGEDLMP
structure (smiles),measurement,setting,value
CCc1cnc(CSc2cnc(NC(=O)Cc3cccnc3)s2)o1,MRT,[1],48 min
same,LCK,A2780 [2],0.4
same,AUC,Mus musculus [3],23 µM·h
same,Tmax,[4],30 min
same,half-life,[5],66 min
same,Cmax,[6],40 µM
same,Cell cycle,[7],71%
same,Cell cycle,[8],20%
same,Cell cycle,[9],7%
same,Cell cycle,[10],2%
same,Cell cycle,[11],50%
same,Cell cycle,[12],18%
same,Cell cycle,[13],7%
same,Cell cycle,[14],69%
same,Cell cycle,[15],4%
same,IC50,[16],80 nM
same,IC50,[17],5 nM
same,IC50,[18],1090 nM
same,IC50,HS27,860 nM
same,Activity,Homo sapiens [19],82%
same,IC50,MLF,1860 nM
same,T/C,P388,115%
same,IC50,M109,2100 nM
same,IC50,A2780 [20],240 nM
same,Cell cycle,[21],25%
CC(C)(C)c1cnc(CSc2cnc(NC(=O)Cc3ccc(CNC(CO)CO)cc3)s2)o1,Tmax,[22],4.8 min
same,Tmax,[23],19.8 min
same,MRT,Mus musculus [24],2.9 h
same,MRT,[25],1.8 h
same,MRT,[26],4.1 h
same,LCK,A2780 [2],3.3
same,AUC total,Mus musculus [27],4.98 µM·h
same,AUC total,Mus musculus [28],1200 nM·h
same,AUC total,Mus musculus [3],2.7 µM·h
same,Vd,[29],6.9 L/kg
same,Tmax,[4],60 min
same,half-life,[5],108 min
same,half-life,[30],132 min
same,half-life,[31],84 min
same,Cmax,[32],8.27 µM
same,Cmax,[33],635 nM
same,clearance,[34],67 mL/min/kg
same,Cmax,[6],0.8 µM
same,bioavailability,[35],24%
same,IC50,[18],100 nM
same,IC50,[36],> 25 µM
same,Activity,Homo sapiens [19],78%
same,IC50,[37],28 µM
same,IC50,[38],24 µM
same,Rate,Mus musculus [39],0.22 nM min-1 (mg of protein)-1
same,Activity,Mus musculus [40],79%
same,T/C,P388,140%
same,IC50,[41],> 45 µM
same,IC50,[42],45 µM
same,IC50,[43],> 45 µM
same,IC50,[44],5.6 µM
same,IC50,[45],29 µM
same,IC50,[46],> 50 µM
same,Rate,Homo sapiens [47],0.21 nM min-1 (mg of protein)-1
same,IC50,[48],35 µM
